Data from patent publication US8637509B2, “Azaindazoles” (GlaxoSmithKline LLC, priority 2010, dated 2014).

Target: T1, EZH2 (Homo sapiens, UniProt Q15910)
T1 construct: GRITS37108
Assay: EZH2 methyltransferase SPA assay (3H-SAM, Hela nucleosomes)
Assay type: biochemical
Conditions: read-out: IC50

T1 sequence (Q15910 whole entry): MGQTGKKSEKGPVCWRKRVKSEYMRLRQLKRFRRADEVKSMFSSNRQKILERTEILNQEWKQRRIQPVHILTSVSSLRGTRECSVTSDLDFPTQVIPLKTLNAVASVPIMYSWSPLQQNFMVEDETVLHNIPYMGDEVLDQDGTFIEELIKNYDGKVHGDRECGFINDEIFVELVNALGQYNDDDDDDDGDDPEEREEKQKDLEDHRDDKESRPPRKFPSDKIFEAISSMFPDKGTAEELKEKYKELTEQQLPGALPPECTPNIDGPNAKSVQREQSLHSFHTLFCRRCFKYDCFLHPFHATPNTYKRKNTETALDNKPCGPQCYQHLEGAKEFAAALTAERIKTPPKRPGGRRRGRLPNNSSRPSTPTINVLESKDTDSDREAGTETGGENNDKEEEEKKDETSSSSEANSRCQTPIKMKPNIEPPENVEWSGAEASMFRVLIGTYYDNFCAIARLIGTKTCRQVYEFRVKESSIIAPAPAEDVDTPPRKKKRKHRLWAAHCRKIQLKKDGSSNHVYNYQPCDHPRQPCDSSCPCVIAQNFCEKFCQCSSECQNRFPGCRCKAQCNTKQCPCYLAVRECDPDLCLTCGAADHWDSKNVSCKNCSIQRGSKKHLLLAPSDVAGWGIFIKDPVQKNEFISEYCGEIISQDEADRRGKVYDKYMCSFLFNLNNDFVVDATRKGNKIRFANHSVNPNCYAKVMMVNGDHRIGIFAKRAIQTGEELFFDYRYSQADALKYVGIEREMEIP
T1 sequence (O75530 whole entry partner): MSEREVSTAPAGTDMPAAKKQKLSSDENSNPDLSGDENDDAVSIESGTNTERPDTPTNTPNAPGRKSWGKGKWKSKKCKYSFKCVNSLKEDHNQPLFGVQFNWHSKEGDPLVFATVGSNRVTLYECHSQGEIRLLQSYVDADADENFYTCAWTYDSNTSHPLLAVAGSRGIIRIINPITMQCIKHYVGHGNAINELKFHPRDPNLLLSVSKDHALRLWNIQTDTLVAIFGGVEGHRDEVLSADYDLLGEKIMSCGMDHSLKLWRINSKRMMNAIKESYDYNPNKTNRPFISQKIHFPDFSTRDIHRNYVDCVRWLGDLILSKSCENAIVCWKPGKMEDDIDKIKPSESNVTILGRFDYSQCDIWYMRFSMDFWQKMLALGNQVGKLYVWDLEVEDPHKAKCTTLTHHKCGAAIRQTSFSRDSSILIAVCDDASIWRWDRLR
T1 sequence (Q15022 whole entry partner): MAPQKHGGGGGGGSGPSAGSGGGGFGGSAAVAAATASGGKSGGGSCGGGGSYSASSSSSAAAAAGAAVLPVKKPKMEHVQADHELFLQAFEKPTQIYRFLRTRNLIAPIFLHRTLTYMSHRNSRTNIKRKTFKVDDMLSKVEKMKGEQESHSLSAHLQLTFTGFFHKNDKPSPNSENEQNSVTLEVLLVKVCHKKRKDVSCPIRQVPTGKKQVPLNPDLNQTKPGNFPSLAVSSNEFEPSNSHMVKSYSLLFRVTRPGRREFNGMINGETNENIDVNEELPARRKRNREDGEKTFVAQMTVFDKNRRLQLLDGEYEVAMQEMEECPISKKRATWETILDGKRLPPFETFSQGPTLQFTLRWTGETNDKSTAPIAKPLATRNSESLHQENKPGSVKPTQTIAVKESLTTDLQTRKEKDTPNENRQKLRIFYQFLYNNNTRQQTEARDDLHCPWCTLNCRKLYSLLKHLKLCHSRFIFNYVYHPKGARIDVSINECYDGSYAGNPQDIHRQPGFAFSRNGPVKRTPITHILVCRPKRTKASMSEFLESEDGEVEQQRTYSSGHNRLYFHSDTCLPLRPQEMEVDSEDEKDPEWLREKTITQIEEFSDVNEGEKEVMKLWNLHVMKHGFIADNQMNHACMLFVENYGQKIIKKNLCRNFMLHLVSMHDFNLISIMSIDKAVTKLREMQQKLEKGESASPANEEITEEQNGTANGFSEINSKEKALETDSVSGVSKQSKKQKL

SMILES	IC50
Cc1cc(C)c(CNC(=O)c2cc(-c3ccc(N4CCOCC4)nc3)nc3c2cnn3C(C)C)c(=O)[nH]1 [Ex 67, N-[(4,6-Dimethyl-2-oxo-1,2-dihydro-3-pyridinyl)methyl]-1-(1-methylethyl)-6-[6-(4-morpholinyl)-3-pyridinyl]-1H-pyrazolo[3,4-b]pyridine-4-carboxamide]	58 nM
CCNc1cc(C(=O)NCc2c(C)cc(C)[nH]c2=O)c2cnn(C(C)C)c2n1 [Ex 21, N-[(4,6-Dimethyl-2-oxo-1,2-dihydro-3-pyridinyl)methyl]-6-(ethylamino)-1-(1-methylethyl)-1H-pyrazolo[3,4-b]pyridine-4-carboxamide]	1040 nM
Cc1cc(C)c(CNC(=O)c2cc(-c3ccc4[nH]ncc4c3)nc3c2cnn3C(C)C)c(=O)[nH]1 [Ex 74, N-[(4,6-Dimethyl-2-oxo-1,2-dihydro-3-pyridinyl)methyl]-6-(1H-indazol-5-yl)-1-(1-methylethyl)-1H-pyrazolo[3,4-b]pyridine-4-carboxamide]	151 nM
Cc1cc(C(C)C)c(CNC(=O)c2cc(C3CC3)nc3c2cnn3C(C)C)c(=O)[nH]1 [Ex 8, 6-Cyclopropyl-1-(1-methylethyl)-N-{[6-methyl-4-(1-methylethyl)-2-oxo-1,2-dihydro-3-pyridinyl]methyl}-1H-pyrazolo[3,4-b]pyridine-4-carboxamide]	167 nM
Cc1cc(C)c(CNC(=O)c2cc(-c3cncc(S(C)(=O)=O)c3)nc3c2cnn3C(C)C)c(=O)[nH]1 [Ex 61, N-[(4,6-Dimethyl-2-oxo-1,2-dihydro-3-pyridinyl)methyl]-1-(1-methylethyl)-6-[5-(methylsulfonyl)-3-pyridinyl]-1H-pyrazolo[3,4-b]pyridine-4-carboxamide]	112 nM
CNC(=O)c1ccc(-c2cc(C(=O)NCc3c(C)cc(C)[nH]c3=O)c3cnn(C(C)C)c3n2)cc1 [Ex 46, N-[(4,6-Dimethyl-2-oxo-1,2-dihydro-3-pyridinyl)methyl]-6-{4-[(methylamino)carbonyl]phenyl}-1-(1-methylethyl)-1H-pyrazolo[3,4-b]pyridine-4-carboxamide]	128 nM
Cc1cc(C)c(CNC(=O)c2ccnc3c2cnn3C(C)C)c(=O)[nH]1 [Ex 22, N-[(4,6-Dimethyl-2-oxo-1,2-dihydro-3-pyridinyl)methyl]-1-(1-methylethyl)-1H-pyrazolo[3,4-b]pyridine-4-carboxamide]	1360 nM
Cc1cc(C)c(CNC(=O)c2cc(-c3ccc(N(C)C)nc3)nc3c2cnn3C(C)C)c(=O)[nH]1 [Ex 41, 6-[6-(Dimethylamino)-3-pyridinyl]-N-[(4,6-dimethyl-2-oxo-1,2-dihydro-3-pyridinyl)methyl]-1-(1-methylethyl)-1H-pyrazolo[3,4-b]pyridine-4-carboxamide]	86 nM
CNC(=O)c1ccc(-c2cc(C(=O)NCc3c(C)cc(C)[nH]c3=O)c3cnn(C(C)C)c3n2)cn1 [Ex 63, N-[(4,6-Dimethyl-2-oxo-1,2-dihydro-3-pyridinyl)methyl]-6-[6-[(methylamino)carbonyl]-3-pyridinyl]-1-(1-methylethyl)-1H-pyrazolo[3,4-b]pyridine-4-carboxamide]	96 nM
COc1cncc(-c2cc(C(=O)NCc3c(C)cc(C)[nH]c3=O)c3cnn(C(C)C)c3n2)c1 [Ex 58, N-[(4,6-Dimethyl-2-oxo-1,2-dihydro-3-pyridinyl)methyl]-1-(1-methylethyl)-6-[5-(methyloxy)-3-pyridinyl]-1H-pyrazolo[3,4-b]pyridine-4-carboxamide]	78 nM
Cc1cc(C)c(CNC(=O)c2cc(-c3ccc4[nH]nc(C)c4c3)nc3c2cnn3C(C)C)c(=O)[nH]1 [Ex 30, N-[(4,6-Dimethyl-2-oxo-1,2-dihydro-3-pyridinyl)methyl]-1-(1-methylethyl)-6-(3-methyl-1H-indazol-5-yl)-1H-pyrazolo[3,4-b]pyridine-4-carboxamide]	154 nM
Cc1cc(C)c(CNC(=O)c2cc(C#Cc3ccncc3)nc3c2cnn3C(C)C)c(=O)[nH]1 [Ex 33, N-[(4,6-Dimethyl-2-oxo-1,2-dihydro-3-pyridinyl)methyl]-1-(1-methylethyl)-6-(4-pyridinylethynyl)-1H-pyrazolo[3,4-b]pyridine-4-carboxamide]	70 nM
COc1ccc(-c2cc(C(=O)NCc3c(C)cc(C)[nH]c3=O)c3cnn(C(C)C)c3n2)cn1 [Ex 68, N-[(4,6-Dimethyl-2-oxo-1,2-dihydro-3-pyridinyl)methyl]-1-(1-methylethyl)-6-[6-(methyloxy)-3-pyridinyl]-1H-pyrazolo[3,4-b]pyridine-4-carboxamide]	76 nM
Cc1cc(C)c(CNC(=O)c2cc(NCCN(C)C)nc3c2cnn3C(C)C)c(=O)[nH]1 [Ex 56, 6-{[2-(Dimethylamino)ethyl]amino}-N-[(4,6-dimethyl-2-oxo-1,2-dihydro-3-pyridinyl)methyl]-1-(1-methylethyl)-1H-pyrazolo[3,4-b]pyridine-4-carboxamide]	2110 nM

Results, then the molecule that gave them:

IC50	SMILES
5750 nM	Cc1cc(C(=O)NCc2c(C)cc(C)[nH]c2=O)c2cnn(Cc3ccccc3)c2n1 [Ex 100, N-[(4,6-Dimethyl-2-oxo-1,2-dihydro-3-pyridinyl)methyl]-6-methyl-1-(phenylmethyl)-1H-pyrazolo[3,4-b]pyridine-4-carboxamide]
231 nM	Cc1cc(C)c(CNC(=O)c2cc(C3CC3)nc3c2c(C)nn3C2CCCCC2)c(=O)[nH]1 [Ex 110, 1-Cyclohexyl-6-cyclopropyl-N-[(4,6-dimethyl-2-oxo-1,2-dihydro-3-pyridinyl)methyl]-3-methyl-1H-pyrazolo[3,4-b]pyridine-4-carboxamide]
207 nM	Cc1cc(C)c(CNC(=O)c2cc(C3CC3)nc3c2c(C)nn3C(C)C2CC2)c(=O)[nH]1 (stereo not drawn) [Ex 109, 6-Cyclopropyl-1-(1-cyclopropylethyl)-N-[(4,6-dimethyl-2-oxo-1,2-dihydro-3-pyridinyl)methyl]-3-methyl-1H-pyrazolo[3,4-b]pyridine-4-carboxamide]
140 nM	Cc1cc(C)c(CNC(=O)c2cc(-c3ccc4c(c3)CC(=O)N4)nc3c2cnn3C(C)C)c(=O)[nH]1 [Ex 79, N-[(4,6-Dimethyl-2-oxo-1,2-dihydro-3-pyridinyl)methyl]-1-(1-methylethyl)-6-(2-oxo-2,3-dihydro-1H-indol-5-yl)-1H-pyrazolo[3,4-b]pyridine-4-carboxamide]
52 nM	Cc1cc(C)c(CNC(=O)c2cc(-c3ccc4[nH]c(=O)[nH]c4c3)nc3c2c(C)nn3C(C)(C)C)c(=O)[nH]1 [Ex 88, 1-(1,1-Dimethylethyl)-N-[(4,6-dimethyl-2-oxo-1,2-dihydro-3-pyridinyl)methyl]-3-methyl-6-(2-oxo-2,3-dihydro-1H-benzimidazol-5-yl)-1H-pyrazolo[3,4-b]pyridine-4-carboxamide]
153 nM	Cc1cc(C)c(CNC(=O)c2cc(-c3cccnc3)nc3c2c(C)nn3C(C)(C)C)c(=O)[nH]1 [Ex 122, 1-(1,1-Dimethylethyl)-N-[(4,6-dimethyl-2-oxo-1,2-dihydro-3-pyridinyl)methyl]-3-methyl-6-(3-pyridinyl)-1H-pyrazolo[3,4-b]pyridine-4-carboxamide]
25000 nM	Cc1cc(C)c(CNC(=O)c2cc(C3CC3)nc3c2cnn3CCNS(C)(=O)=O)c(=O)[nH]1 [Ex 99, 6-Cyclopropyl-N-[(4,6-dimethyl-2-oxo-1,2-dihydro-3-pyridinyl)methyl]-1-{2-[(methylsulfonyl)amino]ethyl}-1H-pyrazolo[3,4-b]pyridine-4-carboxamide]
